# According to patent publication EP4745135A1 (Gluetacs Therapeutics (Shanghai) Co., Ltd., priority 2023, dated 2025):
# Tests used:
# CK1α = target: T1, CK1α (Homo sapiens, UniProt P48729+Q96SW2); experiment: Western blot, degradation of substrate protein in hPBMCs; format: cell-based
# T1 construct: effects of the compounds of the present disclosure on the expression of target proteins in cells; endogenous in cells; host or cells: human PBMCs (Milecell Biotechnologies)
# Method: (§1) Conventional Western blot assay was performed to evaluate the effects of the compounds of the present disclosure on the expression of target proteins in cells. • (1) Cell Seeding and Protein Harvesting: Human peripheral blood mononuclear cells (hPBMCs) at a density of 1×10^6 cells/mL were thawed according to the PBMC Recovery Protocol (Milecell Biotechnologies Inc, Shanghai). […] After 24 hours of compounds treatment, cells were harvested and lysed in RIPA protein lysate containing protease inhibitors on ice for 30 min, followed by centrifugation. The supernatant was aspirated as the extracted total cell protein. The protein concentration of the supernatant was determined using the conventional BCA (Bicinchoninic Acid) assay. • (2) To the collected supernatant, 5X SDS sample loading buffer was added, followed by denaturation at 95°C for 5 minutes. The denatured samples were then separated by SDS-PAGE electrophoresis on a polyacrylamide gel, transferred onto a nitrocellulose membrane (0.45 µm NC membrane), blocked with blocking buffer at room temperature for 1 hour, and subjected to antibody incubation and development procedures according to the antibody manufacturer's instructions (Cell Signaling Technology Company).
# (§2) Half-Maximal Degradation Concentration value (the drug concentration required for degrading proteins by 50%, abbreviated as DC50) reads method: comparing the grayscale values of Western blot bands from drug-treated samples with those from blank DMSO-treated controls, and identifying the drug concentration range at which the grayscale value is half that of the DMSO-treated control bands.
# (§3) DC50 values can be calculated using ImageJ software to measure grayscale values of Western blot bands from drug-treated samples. The concentration-response curve is fitted to estimate the drug concentration corresponding to half the grayscale value.
# (§4) Target protein remaining (%) refers to the percentage of target protein remaining in cells after treatment with protein degrader compounds.
# (§5) Calculation method for target protein remaining (%): Use ImageJ software to measure grayscale values of Western blot bands from drug (protein degrader)-treated samples. The grayscale value of drug-treated bands is divided by that of internal control protein bands, and the resulting quotient is normalized to obtain the relative percentage of remaining target protein after protein degrader treatment.
# (§6) Target protein degradation rate (%) = 1−target protein remaining (%). [formula]
# IKZF1 = target: T2, IKZF1 (Homo sapiens, UniProt Q13422+Q96SW2); experiment: as above; format: cell-based
# T2 construct: effects of the compounds of the present disclosure on the expression of target proteins in cells; endogenous in cells; host or cells: human PBMCs (Milecell Biotechnologies)
# T2 sequence (Q13422 whole entry): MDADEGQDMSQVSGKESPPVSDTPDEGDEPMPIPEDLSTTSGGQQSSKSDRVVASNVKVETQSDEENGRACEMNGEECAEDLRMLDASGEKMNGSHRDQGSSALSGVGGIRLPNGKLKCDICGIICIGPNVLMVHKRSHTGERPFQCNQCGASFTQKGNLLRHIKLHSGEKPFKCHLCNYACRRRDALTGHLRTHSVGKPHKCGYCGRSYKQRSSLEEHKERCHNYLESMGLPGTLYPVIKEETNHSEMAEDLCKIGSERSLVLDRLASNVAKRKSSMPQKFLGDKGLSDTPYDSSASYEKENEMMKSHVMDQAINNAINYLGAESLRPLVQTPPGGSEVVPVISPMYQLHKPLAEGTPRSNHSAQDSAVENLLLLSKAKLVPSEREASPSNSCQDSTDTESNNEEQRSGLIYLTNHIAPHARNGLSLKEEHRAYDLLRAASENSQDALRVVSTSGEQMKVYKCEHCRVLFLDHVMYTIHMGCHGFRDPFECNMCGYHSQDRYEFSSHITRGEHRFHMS
# T2 sequence (Q96SW2 whole entry): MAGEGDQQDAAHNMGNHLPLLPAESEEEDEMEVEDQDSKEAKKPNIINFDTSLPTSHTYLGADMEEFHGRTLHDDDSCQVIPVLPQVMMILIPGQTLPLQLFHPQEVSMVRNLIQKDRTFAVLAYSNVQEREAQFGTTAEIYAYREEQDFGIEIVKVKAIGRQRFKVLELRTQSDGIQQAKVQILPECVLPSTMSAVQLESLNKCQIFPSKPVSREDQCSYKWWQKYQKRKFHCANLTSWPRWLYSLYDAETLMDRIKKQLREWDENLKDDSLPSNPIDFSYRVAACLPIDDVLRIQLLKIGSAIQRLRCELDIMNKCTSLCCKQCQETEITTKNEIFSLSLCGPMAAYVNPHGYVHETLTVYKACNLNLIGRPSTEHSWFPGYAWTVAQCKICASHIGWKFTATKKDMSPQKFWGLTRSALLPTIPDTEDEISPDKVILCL
# T2 sequence (Q16531 whole entry partner): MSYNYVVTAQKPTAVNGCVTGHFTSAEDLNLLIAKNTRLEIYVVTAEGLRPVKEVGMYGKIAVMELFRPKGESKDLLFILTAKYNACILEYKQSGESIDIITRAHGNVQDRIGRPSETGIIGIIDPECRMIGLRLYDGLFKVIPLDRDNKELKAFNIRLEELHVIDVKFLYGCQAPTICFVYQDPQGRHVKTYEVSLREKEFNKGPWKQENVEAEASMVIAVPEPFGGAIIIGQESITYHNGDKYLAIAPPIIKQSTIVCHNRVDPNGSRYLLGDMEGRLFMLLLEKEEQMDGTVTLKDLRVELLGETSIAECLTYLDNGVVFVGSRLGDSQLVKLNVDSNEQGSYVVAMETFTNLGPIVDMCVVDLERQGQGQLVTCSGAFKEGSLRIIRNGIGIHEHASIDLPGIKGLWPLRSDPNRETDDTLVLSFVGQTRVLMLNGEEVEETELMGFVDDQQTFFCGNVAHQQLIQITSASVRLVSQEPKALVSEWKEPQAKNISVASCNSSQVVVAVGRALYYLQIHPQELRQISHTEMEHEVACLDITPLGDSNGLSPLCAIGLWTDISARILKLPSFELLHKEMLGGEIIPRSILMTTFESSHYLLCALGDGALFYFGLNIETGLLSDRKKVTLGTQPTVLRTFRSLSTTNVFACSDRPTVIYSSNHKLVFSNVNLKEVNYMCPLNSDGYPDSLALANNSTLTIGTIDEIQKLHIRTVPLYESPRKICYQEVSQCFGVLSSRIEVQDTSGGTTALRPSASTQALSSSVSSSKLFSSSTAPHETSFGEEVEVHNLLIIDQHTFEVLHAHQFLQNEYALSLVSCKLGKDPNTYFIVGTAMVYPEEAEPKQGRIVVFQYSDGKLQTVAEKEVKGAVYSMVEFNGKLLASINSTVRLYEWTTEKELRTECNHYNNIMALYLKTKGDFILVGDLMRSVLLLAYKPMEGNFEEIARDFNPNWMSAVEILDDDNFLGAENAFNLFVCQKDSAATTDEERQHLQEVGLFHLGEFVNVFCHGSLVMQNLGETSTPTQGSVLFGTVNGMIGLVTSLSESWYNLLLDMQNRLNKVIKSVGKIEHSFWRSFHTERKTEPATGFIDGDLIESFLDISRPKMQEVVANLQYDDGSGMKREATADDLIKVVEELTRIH
# Method: as §1, §2, §3, §4, §5, §6
# IKZF2 = target: T3, IKZF2 (Homo sapiens, UniProt Q96SW2+Q9UKS7); experiment: as above; format: cell-based
# T3 construct: effects of the compounds of the present disclosure on the expression of target proteins in cells; endogenous in cells; host or cells: human PBMCs (Milecell Biotechnologies)
# T3 sequence (Q9UKS7 whole entry): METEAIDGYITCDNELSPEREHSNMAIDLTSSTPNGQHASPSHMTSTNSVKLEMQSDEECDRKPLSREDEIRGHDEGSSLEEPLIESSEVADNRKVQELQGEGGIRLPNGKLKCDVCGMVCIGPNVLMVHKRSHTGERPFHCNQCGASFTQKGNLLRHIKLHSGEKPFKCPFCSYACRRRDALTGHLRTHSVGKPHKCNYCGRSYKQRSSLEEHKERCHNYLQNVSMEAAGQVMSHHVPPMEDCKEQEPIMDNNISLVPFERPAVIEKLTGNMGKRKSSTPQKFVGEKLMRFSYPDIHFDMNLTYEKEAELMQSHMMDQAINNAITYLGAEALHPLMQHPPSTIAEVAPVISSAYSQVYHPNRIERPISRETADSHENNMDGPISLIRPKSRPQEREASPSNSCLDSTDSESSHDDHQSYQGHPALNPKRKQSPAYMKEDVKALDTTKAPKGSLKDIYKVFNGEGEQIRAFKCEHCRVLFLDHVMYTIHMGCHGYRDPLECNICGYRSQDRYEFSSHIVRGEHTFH
# T3 sequence (Q96SW2 whole entry): as the sequence (Q96SW2 whole entry) above
# T3 sequence (Q16531 whole entry partner): as the sequence (Q16531 whole entry partner) above
# Method: as §1, §2, §3, §4, §5, §6
# IKZF3 = target: T4, IKZF3 (Homo sapiens, UniProt Q96SW2+Q9UKT9); experiment: as above; format: cell-based
# T4 construct: effects of the compounds of the present disclosure on the expression of target proteins in cells; endogenous in cells; host or cells: human PBMCs (Milecell Biotechnologies)
# T4 sequence (Q9UKT9 whole entry): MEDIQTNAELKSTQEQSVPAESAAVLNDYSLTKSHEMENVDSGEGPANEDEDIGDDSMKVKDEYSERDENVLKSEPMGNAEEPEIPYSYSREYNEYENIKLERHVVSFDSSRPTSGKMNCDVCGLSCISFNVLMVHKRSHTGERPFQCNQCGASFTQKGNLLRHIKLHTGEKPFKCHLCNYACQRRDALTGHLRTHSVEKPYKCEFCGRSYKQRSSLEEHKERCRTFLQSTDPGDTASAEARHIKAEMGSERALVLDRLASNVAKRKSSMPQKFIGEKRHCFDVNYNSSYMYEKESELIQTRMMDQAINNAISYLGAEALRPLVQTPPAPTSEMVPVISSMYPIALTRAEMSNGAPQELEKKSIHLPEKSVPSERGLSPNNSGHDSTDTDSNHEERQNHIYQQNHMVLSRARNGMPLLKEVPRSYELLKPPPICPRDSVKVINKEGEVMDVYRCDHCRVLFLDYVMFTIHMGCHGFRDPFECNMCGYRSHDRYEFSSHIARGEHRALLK
# T4 sequence (Q96SW2 whole entry): as the sequence (Q96SW2 whole entry) above
# T4 sequence (Q16531 whole entry partner): as the sequence (Q16531 whole entry partner) above
# Method: as §1, §2, §3, §4, §5, §6
# WEE1 = target: T5, WEE1 (Homo sapiens, UniProt P30291+Q96SW2); experiment: as above; format: cell-based
# T5 construct: effects of the compounds of the present disclosure on the expression of target proteins in cells; endogenous in cells; host or cells: human PBMCs (Milecell Biotechnologies)
# T5 sequence (P30291 whole entry): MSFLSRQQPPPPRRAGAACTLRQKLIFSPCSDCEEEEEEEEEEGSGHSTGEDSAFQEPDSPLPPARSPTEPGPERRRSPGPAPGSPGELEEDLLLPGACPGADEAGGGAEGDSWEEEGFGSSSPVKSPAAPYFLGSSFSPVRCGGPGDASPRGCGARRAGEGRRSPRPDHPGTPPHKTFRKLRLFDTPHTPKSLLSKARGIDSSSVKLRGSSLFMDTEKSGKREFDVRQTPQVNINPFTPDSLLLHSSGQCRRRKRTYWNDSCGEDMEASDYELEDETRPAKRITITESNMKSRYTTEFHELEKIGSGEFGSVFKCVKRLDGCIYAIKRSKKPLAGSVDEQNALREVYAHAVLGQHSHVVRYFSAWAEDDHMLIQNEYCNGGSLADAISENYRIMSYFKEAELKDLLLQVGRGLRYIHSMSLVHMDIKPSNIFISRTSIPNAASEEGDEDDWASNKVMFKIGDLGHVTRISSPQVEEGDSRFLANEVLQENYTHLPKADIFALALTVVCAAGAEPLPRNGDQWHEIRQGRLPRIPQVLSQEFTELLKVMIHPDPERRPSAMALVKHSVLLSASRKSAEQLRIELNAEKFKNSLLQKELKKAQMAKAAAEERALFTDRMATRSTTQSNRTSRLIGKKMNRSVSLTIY
# T5 sequence (Q96SW2 whole entry): as the sequence (Q96SW2 whole entry) above
# T5 sequence (Q16531 whole entry partner): as the sequence (Q16531 whole entry partner) above
# Method: as §1, §2, §3, §4, §5, §6
# GSPT1 = experiment: as above; format: cell-based, Human
# Method: as §1, §2, §3, §4, §5, §6
# [1] = target: T6, human Cereblon WT GST-tagged protein (Homo sapiens, UniProt Q96SW2); experiment: CRBN-binding affinity, HTRF (CEREBLON BINDING kit); settings: for inhibition at 0.5 µM: read-out: Inhibition Rate at 0.5 µM (%); for inhibition at 2 µM: read-out: Inhibition Rate at 2 µM (%)
# T6 construct: purchased CISBIO 64BDCRBNPEH
# T6 sequence (Q96SW2 whole entry): as the sequence (Q96SW2 whole entry) above
# Method: The CEREBLON BINDING kits (specification: 10,000 tests; product number: Catalog # 64BDCRBNPEH; CISBIO company) was used to determine the CRBN binding ability of the compounds to be tested through a HTRF method (homogeneous time-resolved fluorescence). The specific methods are as follows: • 1. […] Specifically, diluent #9 (1X) solution was used as the diluent, and multiple concentration gradients were set. […] Then, 2.5 µL of human Cereblon WT GST-tagged protein solution was added to each well. Finally, 5 µL of the thoroughly mixed Thalidomide-Re reagent and GST Eu antibody working solution were added to each of the aforementioned wells. […] The blank control wells were sequentially added with 2.5 µL of diluent #9 (1X) solution, 2.5 µL of PROTAC binding buffer, and 5 µL of thoroughly mixed Thalidomide-Re reagent and GST Eu antibody working solution. • 4.
# [2] = Western blot, 24 hours of compound treatment, compounds tested at 50 nM and 500 nM (concentration for the table not stated)
# [3] = 24 hours treatment, compounds at 50 nM and 500 nM (concentration behind the class not stated)
# T1 sequence (P48729 whole entry): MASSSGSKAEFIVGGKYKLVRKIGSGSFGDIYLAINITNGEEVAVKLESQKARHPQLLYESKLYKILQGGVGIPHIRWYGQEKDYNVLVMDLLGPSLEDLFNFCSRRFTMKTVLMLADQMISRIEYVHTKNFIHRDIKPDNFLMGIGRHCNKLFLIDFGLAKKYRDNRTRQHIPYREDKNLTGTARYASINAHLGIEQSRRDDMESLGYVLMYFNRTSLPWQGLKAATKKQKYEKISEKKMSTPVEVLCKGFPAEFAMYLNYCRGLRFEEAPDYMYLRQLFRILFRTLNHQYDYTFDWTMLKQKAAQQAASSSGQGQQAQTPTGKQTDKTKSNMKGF
# T1 sequence (Q96SW2 whole entry): as the sequence (Q96SW2 whole entry) above
# T1 sequence (Q16531 whole entry partner): as the sequence (Q16531 whole entry partner) above
smiles,measurement,setting,value
"O=C1CCC(N2Cc3c(CN4CCN(c5cccc(Cl)c5Cl)CC4)cccc3C2=S)C(=O)N1 (centres unmarked) [GT-08258, 3-(4-((4-(2,3-dichlorophenyl)piperazin-1-yl)methyl)-1-thioxoisoindolin-2-yl)piperidine-2,6-dione]",CK1α substrate protein remaining %,CK1α; [2],B (80%< substrate protein remaining %≤ 100%)
same,IKZF 1 substrate protein remaining %,IKZF1; [2],B (80%< substrate protein remaining %≤ 100%)
same,IKZF2 substrate protein remaining %,IKZF2; [2],B (80%< substrate protein remaining %≤ 100%)
same,IKZF3 substrate protein remaining %,IKZF3; [2],B (80%< substrate protein remaining %≤ 100%)
same,Wee1 substrate protein remaining %,WEE1; [2],A (0% ≤ substrate protein remaining % ≤ 80%)
same,GSPT1 substrate protein remaining %,GSPT1; [2],A (0% ≤ substrate protein remaining % ≤ 80%)
"O=C1CCC(N2Cc3c(CN4CCN(c5ccccc5Br)CC4)cccc3C2=S)C(=O)N1 (centres unmarked) [GT-08267, 3-(4-((4-(2-bromophenyl)piperazin-1-yl)methyl)-1-thioxoisoindolin-2-yl)piperidine-2,6-dione]",CK1α substrate protein remaining %,CK1α; [2],B (80%< substrate protein remaining %≤ 100%)
same,IKZF 1 substrate protein remaining %,IKZF1; [2],B (80%< substrate protein remaining %≤ 100%)
same,IKZF2 substrate protein remaining %,IKZF2; [2],B (80%< substrate protein remaining %≤ 100%)
same,IKZF3 substrate protein remaining %,IKZF3; [2],B (80%< substrate protein remaining %≤ 100%)
same,Wee1 substrate protein remaining %,WEE1; [2],A (0% ≤ substrate protein remaining % ≤ 80%)
same,GSPT1 substrate protein remaining %,GSPT1; [2],A (0% ≤ substrate protein remaining % ≤ 80%)
"O=C1CCC(N2Cc3c(CN4CC=C(c5cccc(Cl)c5Cl)CC4)cccc3C2=S)C(=O)N1 (centres unmarked) [GT-08270, 3-(4-((4-(2,3-dichlorophenyl)-3,6-dihydropyridin-1(2H)-yl)methyl)-1-thioxoisoindolin-2-yl)piperidine-2,6-dione]",CK1α substrate protein remaining %,CK1α; [2],B (80%< substrate protein remaining %≤ 100%)
same,IKZF 1 substrate protein remaining %,IKZF1; [2],B (80%< substrate protein remaining %≤ 100%)
same,IKZF2 substrate protein remaining %,IKZF2; [2],B (80%< substrate protein remaining %≤ 100%)
same,IKZF3 substrate protein remaining %,IKZF3; [2],B (80%< substrate protein remaining %≤ 100%)
same,Wee1 substrate protein remaining %,WEE1; [2],A (0% ≤ substrate protein remaining % ≤ 80%)
same,GSPT1 substrate protein remaining %,GSPT1; [2],A (0% ≤ substrate protein remaining % ≤ 80%)
"O=C1CCC(N2Cc3c(CN4CCC(c5cccc(F)c5Cl)CC4)cccc3C2=S)C(=O)N1 (centres unmarked) [GT-08321, 3-(4-((4-(2-chloro-3-fluorophenyl)piperidin-1-yl)methyl)-1-thioxoisoindolin-2-yl)piperidine-2,6-dione]",CK1α substrate protein remaining %,CK1α; [3],B (80%< substrate protein remaining %≤ 100%)
same,IKZF 1 substrate protein remaining %,IKZF1; [3],B (80%< substrate protein remaining %≤ 100%)
same,IKZF2 substrate protein remaining %,IKZF2; [3],B (80%< substrate protein remaining %≤ 100%)
same,IKZF3 substrate protein remaining %,IKZF3; [3],A (0% ≤ substrate protein remaining % ≤ 80%)
same,Wee1 substrate protein remaining %,WEE1; [3],A (0% ≤ substrate protein remaining % ≤ 80%)
same,GSPT1 substrate protein remaining %,GSPT1; [3],B (80%< substrate protein remaining %≤ 100%)
"O=C1CCC(N2Cc3cc(CN4CCN(c5ncnc6sc(Br)cc56)CC4)ccc3C2=S)C(=O)N1 (centres unmarked) [GT-09295, 3-(5-((4-(6-bromothieno[2,3-d]pyrimidin-4-yl)piperazin-1-yl)methyl)-1-thioxoisoindolin-2-yl)piperidine-2,6-dione]",inhibition at 0.5 µM,[1],80 to 100%
same,inhibition at 2 µM,[1],80 to 100%
"O=C1CCC(N2Cc3cc(CN4CCN(c5ncnc6scc(-c7ccccc7)c56)CC4)ccc3C2=S)C(=O)N1 (centres unmarked) [GT-09297, 3-(5-((4-(5-phenylthieno[2,3-d]pyrimidin-4-yl)piperazin-1-yl)methyl)-1-thioxoisoindolin-2-yl)piperidine-2,6-dione]",inhibition at 0.5 µM,[1],60 to 80%
same,inhibition at 2 µM,[1],80 to 100%
"O=C1CCC(N2Cc3cc(CN4CCN(c5ncc6ccsc6n5)CC4)ccc3C2=S)C(=O)N1 (centres unmarked) [GT-09303, 3-(5-((4-(thieno[2,3-d]pyrimidin-2-yl)piperazin-1-yl)methyl)-1-thioxoisoindolin-2-yl)piperidine-2,6-dione]",inhibition at 0.5 µM,[1],60 to 80%
same,inhibition at 2 µM,[1],80 to 100%
"O=C1CCC(N2Cc3cc(CN4CCC(c5ncnc6sccc56)CC4)ccc3C2=S)C(=O)N1 (centres unmarked) [GT-09304, 3-(5-((4-(thieno[2,3-d]pyrimidin-4-yl)piperidin-1-yl)methyl)-1-thioxoisoindolin-2-yl)piperidine-2,6-dione]",inhibition at 0.5 µM,[1],60 to 80%
same,inhibition at 2 µM,[1],80 to 100%
"Cc1cc2c(C3CCN(Cc4ccc5c(c4)CN(C4CCC(=O)NC4=O)C5=S)CC3)ncnc2s1 (centres unmarked) [GT-09305, 3-(5-((4-(6-methylthieno[2,3-d]pyrimidin-4-yl)piperidin-1-yl)methyl)-1-thioxoisoindolin-2-yl)piperidine-2,6-dione]",inhibition at 0.5 µM,[1],60 to 80%
same,inhibition at 2 µM,[1],80 to 100%
"O=C1CCC(N2Cc3cc(CN4CCC(c5ncnc6sc(-c7ccccc7)cc56)CC4)ccc3C2=S)C(=O)N1 (centres unmarked) [GT-09306, 3-(5-((4-(6-phenylthieno[2,3-d]pyrimidin-4-yl)piperidin-1-yl)methyl)-1-thioxoisoindolin-2-yl)piperidine-2,6-dione]",inhibition at 0.5 µM,[1],40 to 53%
same,inhibition at 2 µM,[1],80 to 100%
Cc1nc(C2CCN(Cc3ccc4c(c3)CN(C3CCC(=O)NC3=O)C4=S)CC2)c2c(-c3ccccc3)csc2n1 (centres unmarked) [GT-09308],inhibition at 0.5 µM,[1],40 to 53%
same,inhibition at 2 µM,[1],80 to 100%
"Cc1nc(C2=CCN(Cc3ccc4c(c3)CN(C3CCC(=O)NC3=O)C4=S)CC2)c2c3c(sc2n1)CCCC3 (centres unmarked) [GT-09323, 3-(5-((4-(2-methyl-5,6,7,8-tetrahydrobenzo[4,5]thieno[2,3-d]pyrimidin-4-yl)-3,6-dihydropyridin-1(2H)-yl)methyl)-1-thioxoisoindolin-2-yl)piperidine-2,6-dione]",inhibition at 0.5 µM,[1],40 to 53%
same,inhibition at 2 µM,[1],80 to 100%
"O=C1CCC(N2Cc3cc(CN4CCN(c5nc6c(c(N7CCOCC7)n5)SCC6)CC4)ccc3C2=S)C(=O)N1 (centres unmarked) [GT-09330, 3-(5-((4-(4-morpholino-6,7-dihydrothieno[3,2-d]pyrimidin-2-yl)piperazin-1-yl)methyl)-1-thioxoisoindolin-2-yl)piperidine-2,6-dione]",inhibition at 0.5 µM,[1],60 to 80%
same,inhibition at 2 µM,[1],80 to 100%
"O=C1CCC(N2Cc3cc(CN4CCN(c5ccnc(Cl)c5Cl)CC4)ccc3C2=S)C(=O)N1 (centres unmarked) [GT-09354, 3-(5-((4-(2,3-dichloropyridin-4-yl)piperazin-1-yl)methyl)-1-thioxoisoindolin-2-yl)piperidine-2,6-dione]",inhibition at 0.5 µM,[1],60 to 80%
same,inhibition at 2 µM,[1],80 to 100%
